# “And” between values parts separate entries of the source, which are not always exact repeats. Equal entries are not always repeated. The source made the active and inactive calls. No rule for the calls is given here.
# Test: concentration series on yeast TOR reporter LAP4 – cell-based, MLPCN hits, flow cytometry, dose response (AID 2745);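 also: yeast exposed to compound for three hours at 30 degrees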
# Settings: S. cerevisiae LAP4-GFP reporter, flow cytometry fluorescence; at 33 µM (top of the series)
row,SMILES,LAP4-GFP fluorescence (kMESF)
1,O=S(=O)(/N=C(/Sc1ccccc1)c1ccccc1)c1ccccc1,11.4 kMESF (inactive)
2,O=C(Oc1oc(-c2ccco2)nc1C=Nc1ccccc1)c1ccoc1,8.01 kMESF (inactive)
3,Cc1ccccc1C(=O)NNC(=S)NC(=O)c1ccc(Cl)cc1Cl,8.22 kMESF (inactive)
4,CC(=O)N(C1=C(Cl)C(=O)c2ccccc2C1=O)C1CCCCC1,-2.43 kMESF (inactive)
5,Nc1nc(N)c2nc(CNc3ccc(C(=O)NC(CCC(=O)O)C(=O)O)cc3)cnc2n1 (stereo not drawn),3.13 kMESF (inactive)
6,Cc1cccc(N=C2NC(=O)/C(=C/C=C/c3ccco3)S2)c1C,13.7 kMESF (inactive)
7,Cc1ccc(NC(=O)CCc2ccccc2)cc1S(=O)(=O)N1CCOCC1,3.23 kMESF (inactive)
8,CCn1c(=O)c(C(C)=O)c(O)c2ccccc21,6.66 kMESF (inactive)
9,O=C1N(c2ccccc2C(F)(F)F)O[C@]1(c1ccccc1)C1CCCCC1,2.33 kMESF (inactive)
10,Oc1ccc(COCc2ccccc2)c2cccnc12,20.4 kMESF (inactive)
11,C/C(=N\Nc1ncnc2sc(C)c(C)c12)c1ccccn1,-7.63 kMESF (inactive)
12,Cc1cc(C)c(S(=O)(=O)N2CCC(C(=O)NCc3ccc(Cl)cc3Cl)CC2)c(C)c1,4.35 kMESF (inactive)
13,O=C(OCC(=O)N1CCN(C(=O)c2ccco2)CC1)c1cc(-c2cccc(Br)c2)nc2ccccc12,9.27 kMESF (inactive)
14,CN(C)C(=O)Oc1ccnc2cc(Cl)ccc12,2.83 kMESF (inactive)
15,O=C(/C=C/c1ccccc1)c1cc(Br)ccc(=O)c1O,-10.1 kMESF (inactive)
16,Cc1ccc(C(=O)NNC(=S)NC(=O)c2ccco2)cc1,7.42 kMESF (inactive)
17,CC(=O)Oc1ccc(/C=c2\sc3ncnn3c2=O)cc1,10.1 kMESF (inactive)
18,O=C(COc1ccccc1)N1CCN(c2ncnc3c2cnn3-c2ccccc2)CC1,3.38 kMESF (inactive)
19,COc1ccc(N2C(=O)C(Cl)=C(Nc3c(C)n(C)n(-c4ccccc4)c3=O)C2=O)cc1,4.31 kMESF (inactive)
20,O=C(/C=C/c1cccc(Cl)c1)c1nc2ccccc2[nH]1,4.71 kMESF (inactive)
21,CN(C)/C=C/C(=O)c1ccc(-c2ccc(Cl)cc2Cl)o1,4.39 kMESF (inactive)
22,O=C(Cc1ccc(Cl)cc1)NNC(=S)NC(=O)c1cccs1,9.52 kMESF (inactive)

row,SMILES,LAP4-GFP fluorescence (kMESF)
1,COc1ccc(N/N=C(\C#N)C(N)=O)cc1,13.2 kMESF (inactive)
2,O=C(Oc1ccnc2cc(Cl)ccc12)N1CCOCC1,2.63 kMESF (inactive)
3,CC(=O)Nc1ncnc2c1c(-c1ccc(Cl)cc1)nn2C(C)(C)C,5.09 kMESF (inactive)
4,O=C(O)c1ccccc1SC1CC(=O)N(c2ccc3c(c2)OCO3)C1=O (stereo not drawn),5.3 kMESF (inactive)
5,O=C(Oc1oc(-c2ccco2)nc1C=Nc1ccccc1)c1ccco1,23.7 kMESF (inactive)
6,O=c1c(-c2ccc(Cl)cc2)[n+]([O-])c2ccccc2n1O,16.1 kMESF (inactive)
7,CN1C(=O)/C(=N\OC(=O)c2cccc3ccccc23)c2ccccc21,7.11 kMESF (inactive)
8,Cc1ccc2nc(/C(C#N)=C/c3ccc(O)c(O)c3)[nH]c2c1,4.39 kMESF (inactive)
9,Cc1cc(C)nc(S/C=C/C(=O)c2ccccc2)n1,11 kMESF (inactive)
10,O=C1CCN(S(=O)(=O)c2ccccc2)CCN1CCOCc1ccc(F)cc1,2.43 kMESF (inactive)
11,Cc1nn2c(NCc3ccccn3)c3c(nc2c1-c1ccccc1)CCC3,7.76 kMESF (inactive)
12,O=C(NCc1ccc2c(c1)OCO2)c1nc(S(=O)(=O)Cc2ccccc2)ncc1Cl,4.7 kMESF (inactive)
13,COc1cc(NC(=O)c2ccccc2[N+](=O)[O-])ccc1NC(=O)c1cc2ccccc2o1,3.31 kMESF (inactive)
14,Cc1ccc(N2C(=O)CC(Sc3ncn[nH]3)C2=O)cc1C (stereo not drawn),7.56 kMESF (inactive)
15,O=C(C#Cc1cccc([N+](=O)[O-])c1)c1ccccc1,8.01 kMESF (inactive)
16,N#C/C(=C\c1cc(Br)ccc1F)C(=O)NC1CC1,18.3 kMESF (inactive)
17,C#CCOCCOCCOCCNc1nc(N2CCN(C(=O)CCCCCCCCCCNC(=O)[C@H](CCCCN)n3cc(CCO)nn3)CC2)nc(N2CCN(C(=O)CCCCCCCCCCNC(=O)[C@H](CCCCN)n3cc(C[C@@H](C)CC)nn3)CC2)n1,5.86 kMESF (inactive)
18,Cc1cc(C)c2c(c1)/C(=C/C(=O)c1ccc(Br)s1)C(=O)N2,6.56 kMESF (inactive)
19,O=C(c1ccc([N+](=O)[O-])o1)N1CCN(c2nc3c(F)cc(F)cc3s2)CC1,-0.9 kMESF (inactive)
20,CN(C)NC(=S)Nc1ccc(S(=O)(=O)N2CCCCC2)cc1,3.13 kMESF (inactive)
21,COc1cc(/C=C2\C(=O)ON=C2c2ccccc2)cc(Br)c1O,14.7 kMESF (inactive)
22,CCOC(=O)Cn1cc(/C=C/[N+](=O)[O-])c2ccccc21,8.42 kMESF (inactive)

row,SMILES,LAP4-GFP fluorescence (kMESF)
1,C[n+]1ccc(/C=C/c2c[nH]c3ccccc23)cc1,9.29 kMESF (inactive)
2,O=[N+]([O-])c1cnc(Sc2ccncn2)s1,17.8 kMESF (inactive)
3,COc1ccc(NC(=O)/C(C#N)=C/c2ncc([N+](=O)[O-])n2C)c(OC)c1,9.76 kMESF (inactive)
4,COC(CNC(=O)c1ccc2c3c(onc13)-c1ccccc1C2=O)OC,2.86 kMESF (inactive)
5,C=CCN1C(=O)/C(=C/c2ccc(-c3ccc(F)cc3)o2)SC1=S,15 kMESF (inactive)
6,COc1ccc2c(c1)c(/C=C/c1cc[n+](C)cc1)cn2C,4.11 kMESF (inactive)
7,COc1cc(/C=C/[N+](=O)[O-])ccc1O,7.18 kMESF (inactive)
8,CCOC(=O)CSC1=NC(=O)/C(=C/c2ccc(OC)cc2)S1,6.28 kMESF (inactive)
9,Oc1c(Br)cc(Br)cc1C=Nc1ccc2[nH]ncc2c1,13.1 kMESF (inactive)
10,COC(=O)CCC(=O)OC1(C)C(=O)C2=COC(c3ccc(OC)cc3)=CC2=C(Br)C1=O (stereo not drawn),6.01 kMESF (inactive)
11,Nc1nc2ncc(CNc3ccc(C(=O)N[C@@H](CCC(=O)O)C(=O)O)cc3)nc2c(=O)[nH]1,4.01 kMESF (inactive)
12,COc1cc(/C=C/c2ccc3c(Br)cc(Br)c(O)c3n2)ccc1O,11.7 kMESF (inactive)
13,CCOc1ccc(C(C)=O)cc1N1C(=O)C2C3C=CC(O3)C2C1=O (stereo not drawn),14 kMESF (inactive)
14,COc1ccc(C2=CC3=C(Br)C(=O)C(C)(O)C(=O)C3=CO2)cc1 (stereo not drawn),0.34 kMESF (inactive)
15,CCOC(=O)CS(=O)(=O)c1nc(-c2ccccc2)cc(C(F)(F)F)n1,19.9 kMESF (inactive)
16,COc1cccc(/C=C2\SC(=S)N(CCCC(=O)Nc3ccc(C(=O)O)cc3)C2=O)c1,3.71 kMESF (inactive)
17,Nc1c(C(=O)c2cccs2)sc2nsc(SCCN3CCCCC3)c12,-1.87 kMESF (inactive)
18,N/C(=N\OC(=O)c1ccc(Cl)cc1Cl)c1ccccc1,12.4 kMESF (inactive)
19,CCCCNc1c2c3c(cccc3n(C)c1=O)C(=O)c1ccccc1-2,11.2 kMESF (inactive)
20,CCC(C)/C(C)=N/NC(=O)c1ccc(COc2ccc(Cl)c(C)c2)cc1 (stereo not drawn),4.7 kMESF (inactive)
21,CCN(CC)C(=S)SSC(=S)N(CC)CC,20.4 kMESF (inactive)
22,O=C1/C(=C\c2ccc(O)c(O)c2)SC(=S)N1Cc1ccccc1,-9.95 kMESF (inactive)

row,SMILES,LAP4-GFP fluorescence (kMESF)
1,Cc1ccccc1N1C(=O)C(Cl)=C(N2CCN(c3ccccc3)CC2)C1=O,3.41 kMESF (inactive)
2,CC(=O)CSc1ncnc2c1cnn2-c1ccccc1,3.61 kMESF (inactive)
3,COc1cc(N=c2ssnc2Cl)c(OC)cc1Cl,13.4 kMESF (inactive) and 13.8 kMESF (inactive)
4,CCCCOc1ccc(C(=O)NNC(=S)NC(=O)CC)cc1,9.81 kMESF (inactive)
5,O=C1CC(c2ccccc2)=NN1c1nc(-c2ccccc2)cs1,3.94 kMESF (inactive)
6,COc1ccccc1C(=O)NNC(=S)NC(=O)c1cccs1,6.21 kMESF (inactive)
7,CCN(CC)C(=O)Oc1ccnc2cc(Cl)ccc12,7.62 kMESF (inactive)
8,CCOC(=O)c1c(C)oc2c1c(C(c1cccnc1)N1CCOCC1)c(O)c1ccccc12 (stereo not drawn),4.07 kMESF (inactive)
9,COc1ccc([C@@]2(C(C)C)ON(c3ccccc3C(F)(F)F)C2=O)cc1,4.38 kMESF (inactive)
10,Cc1ccc2c(c1)c(/C=C/c1cc[n+](C)cc1)c(C)n2C,4.11 kMESF (inactive)
11,N/C(=N\OC(=O)c1cc(Br)ccc1Cl)c1ccccn1,12.2 kMESF (inactive)
12,CC(OC(=O)c1ccco1)C(=O)Nc1nc(-c2ccccc2)cs1 (stereo not drawn),3.33 kMESF (inactive)
13,CCN(CC)c1ccc(/C=C2/C(=O)c3ccc(C(=O)O)cc3C2=O)cc1,13.8 kMESF (inactive)
14,Nc1ccc2ccc3cccc[n+]3c2c1,10.3 kMESF (inactive)
15,CC(C)[C@]1(c2ccc(Cl)cc2)ON(c2ccccc2C(F)(F)F)C1=O,3.43 kMESF (inactive)
16,N#Cc1c2ccc([N+](=O)[O-])cc2[n+]([O-])n1-c1ccccc1,4.85 kMESF (inactive)
17,O=C(Nc1ccc(NC(=O)c2cc3ccccc3o2)cc1)c1ccco1,3.31 kMESF (inactive)
18,COc1cc(/C=C2/C(=O)ON=C2c2ccccc2)ccc1O,9.39 kMESF (inactive)
19,Cc1ccc(-c2nc(C)sc2CC(=O)Nc2nnc(C)s2)cc1,3.81 kMESF (inactive)
20,Cc1nc2ccc(NC(=O)c3oc4ccc(F)cc4c3C)cc2s1,3.28 kMESF (inactive)
21,O=C(O)c1ccc2c(c1)C(=O)/C(=C/c1ccccc1)C2=O,3.53 kMESF (inactive)
22,COc1ccc(C(=O)NC(=S)NNC(=O)c2cnccn2)cc1OC,9.2 kMESF (inactive)
